Source: patent US10633407B2, “14-membered ketolides and methods of their preparation and use” (President and Fellows of Harvard College, priority 2014, dated 2020)
In brackets after ≈: the same amount, converted by molar mass.

Columns and labels:
Test in all cases: CLSI broth dilution MIC determination
Format in all cases: cell-based
E. coli ATCC 25922 = conditions: Escherichia coli, ATCC25922, E. coli ATCC 25922 (MP-4); read-out: MIC
In short: (§1)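 CLSI broth-dilution MIC. Controls: azithromycin, solithromycin (many cases). Macrolide-resistance genotypes constitutive or inducible.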

[1] = tested on: E. coli MP-532 clinical-cErmB; conditions: Escherichia coli
In short: as §1

E. coli MP-541 clinical = conditions: Escherichia coli, MP541CLINICAL, read-out: MIC
In short: as §1

[2] = tested on: E. coli MP-9 ATCC25922:tolC; conditions: Escherichia coli, ATCC25922
In short: as §1

[3] = tested on: S. aureus (MRSA) MP-513 ST-228 cErm (Clinical-cErm); conditions: Staphylococcus aureus, read-out: MIC
In short: as §1

S. aureus ATCC 29213 = conditions: Staphylococcus aureus, ATCC29213; S. aureus ATCC 29213 (MP-12); read-out: MIC
In short: as §1

[4] = tested on: S. aureus MP-17 ATCCBAA-977 (BAA 977 iErm); conditions: Staphylococcus aureus; S. aureus MP-17, ATCCBAA-977, iErm; read-out: MIC
In short: as §1

S. aureus MRSA: USA100 = conditions: Staphylococcus aureus; S. aureus MRSA: USA100 (MP-618 UNT-096); read-out: MIC
In short: as §1

S. aureus MRSA: USA300 = conditions: Staphylococcus aureus; S. aureus MRSA: USA300 (MP-549, msr(a)); read-out: MIC
In short: as §1

S. aureus USA600, GISA = conditions: Staphylococcus aureus; S. aureus USA600, GISA (MP-619 UNT-120); read-out: MIC
In short: as §1

S. aureus erm A genotype = conditions: Staphylococcus aureus; S. aureus erm A genotype (MP-620 UNT-146); read-out: MIC
In short: as §1

S. pneumoniae ATCC 49619 = conditions: Streptococcus pneumoniae, ATCC49619, S. pneumoniae ATCC 49619 (MP-21); read-out: MIC
In short: as §1

[5] = tested on: S. pneumoniae mef A genotype (first strain so labelled); conditions: Streptococcus pneumoniae, first strain (MP-626 UNT-038)
In short: as §1

[6] = tested on: S. pneumoniae mef A genotype (second strain so labelled); conditions: Streptococcus pneumoniae, second strain (MP-627 UNT-039), read-out: MIC
In short: as §1

S. pyogenes ATCC 19615 = conditions: Streptococcus pyogenes, ATCC19615, S. pyogenes ATCC 19615 (MP-19); read-out: MIC
[7] = tested on: S. pyogenes Macrolide-resistant; conditions: Streptococcus pyogenes, S. pyogenes Macrolide-resistant (MP-625 UNT-014); read-out: MIC
E. faecalis ATCC 29212 = conditions: Enterococcus faecalis, ATCC29212, E. faecalis ATCC 29212 (MP-24); read-out: MIC
[8] = tested on: E. faecalis Vancomycin-resistant; conditions: Enterococcus faecalis, E. faecalis Vancomycin-resistant (UNT-039); read-out: MIC
A. baumannii ATCC 19606 = conditions: Acinetobacter baumannii, ATCC19606; A. baumannii ATCC 19606 (MP-15); read-out: MIC
K. pneumoniae ATCC 10031 = conditions: Klebsiella pneumoniae, ATCC10031, K. pneumoniae ATCC 10031 (MP-14); read-out: MIC
P. aeruginosa ATCC 27853 = conditions: Pseudomonas aeruginosa, ATCC27853; P. aeruginosa ATCC 27853 (MP-3); read-out: MIC
P. aeruginosa MP-7 PAO1 = conditions: Pseudomonas aeruginosa, read-out: MIC
[9] = tested on: P. aeruginosa MP-8 PAO1:mex (mex-oprM-deletion); conditions: Pseudomonas aeruginosa, PAO1
[10] = tested on: K. pneumoniae MP-548 clinical; conditions: Klebsiella pneumoniae, MP548CLINICAL, read-out: MIC
[11] = tested on: K. pneumoniae MP-546 Clinical-MDR; conditions: Klebsiella pneumoniae, read-out: MIC
[12] = tested on: A. baumannii MP-577 Clinical-AZT low; conditions: Acinetobacter baumannii, read-out: MIC
[13] = tested on: A. baumannii MP-576 Clinical-MDR; conditions: Acinetobacter baumannii, read-out: MIC

Row | SMILES | MIC (E. coli ATCC 25922) [µg/mL] | MIC [1] [µg/mL] | MIC (E. coli MP-541 clinical) [µg/mL] | MIC [2] [µg/mL] | MIC [3] [µg/mL] | MIC (S. aureus ATCC 29213) [µg/mL] | MIC [4] [µg/mL] | MIC (S. aureus MRSA: USA100) [µg/mL] | MIC (S. aureus MRSA: USA300) [µg/mL] | MIC (S. aureus USA600, GISA) [µg/mL] | MIC (S. aureus erm A genotype) [µg/mL] | MIC (S. pneumoniae ATCC 49619) [µg/mL] | MIC [5] [µg/mL] | MIC [6] [µg/mL] | MIC (S. pyogenes ATCC 19615) [µg/mL] | MIC [7] [µg/mL] | MIC (E. faecalis ATCC 29212) [µg/mL] | MIC [8] [µg/mL] | MIC (A. baumannii ATCC 19606) [µg/mL] | MIC (K. pneumoniae ATCC 10031) [µg/mL] | further results
1 | CC[C@H]1OC(=O)[C@@](C)(F)C(=O)[C@H](C)[C@@H](O[C@@H]2OC(C)CC(N(C)C)C2O)[C@](C)(OC)C[C@@H](C)C(=O)[C@H](C)[C@H]2N(CC#CCn3cc(-c4cc(F)ccn4)nn3)C(=O)O[C@]12C (stereo partly drawn) [FSM-100563] | 16 (≈ 18.9 µM) | > 64 | 16 (≈ 18.9 µM) | 2 (≈ 2.37 µM) | 16 (≈ 18.9 µM) | 0.06 (≈ 0.071 µM) | 0.06 (≈ 0.071 µM) | 32 (≈ 37.9 µM) | 0.125 (≈ 0.148 µM) | 16 (≈ 18.9 µM) | 16 (≈ 18.9 µM) | < 0.03 | < 0.03 | < 0.03 | < 0.03 | < 0.03 | < 0.03 | 2 (≈ 2.37 µM) | 8 (≈ 9.47 µM) | 8 (≈ 9.47 µM) | MIC (P. aeruginosa ATCC 27853): 32 µg/mL (≈ 37.9 µM); MIC (P. aeruginosa MP-7 PAO1): 64 µg/mL (≈ 75.7 µM); MIC [9]: 8 µg/mL (≈ 9.47 µM); MIC [10]: 64 µg/mL (≈ 75.7 µM); MIC [11]: > 64 µg/mL; MIC [12]: 32 µg/mL (≈ 37.9 µM); MIC [13]: > 64 µg/mL
2 | CC[C@H]1OC(=O)[C@H](C)C(=O)[C@H](C)[C@@H](O[C@@H]2OC(C)CC(N(C)C)C2O)[C@](C)(OC)C[C@@H](C)C(=O)[C@H](C)[C@H]2N(CC#CCn3cc(-c4cc(F)ccn4)nn3)C(=O)O[C@]12C (stereo partly drawn) [FSM-100566] | 32 (≈ 38.7 µM) | > 64 | 32 (≈ 38.7 µM) | 2 (≈ 2.42 µM) | > 64 | 0.06 (≈ 0.0726 µM) | 0.06 (≈ 0.0726 µM) | > 64 | 0.125 (≈ 0.151 µM) | 64 (≈ 77.4 µM) | > 64 | < 0.03 | < 0.03 | < 0.03 | < 0.03 | < 0.03 | < 0.03 | 8 (≈ 9.67 µM) | 16 (≈ 19.3 µM) | 8 (≈ 9.67 µM) | MIC (P. aeruginosa ATCC 27853): 64 µg/mL (≈ 77.4 µM); MIC (P. aeruginosa MP-7 PAO1): > 64 µg/mL; MIC [9]: 8 µg/mL (≈ 9.67 µM); MIC [10]: 64 µg/mL (≈ 77.4 µM); MIC [11]: > 64 µg/mL; MIC [12]: 64 µg/mL (≈ 77.4 µM); MIC [13]: > 64 µg/mL
